Assay results taken from ChEMBL document CHEMBL2203104, “Recent advances in antitubercular natural products” (Eur J Med Chem, 2012).
Values after ≈ are worked out from the molar mass of the structure shown.

Legend:
[1] = tested on: Mycobacterium tuberculosis; test: Antimycobacterial activity against Mycobacterium tuberculosis H37Rv; assay type: functional; conditions: Mycobacterium tuberculosis, H37Rv; read-out: MIC
[2] = tested on: Mycobacterium tuberculosis; test: Antimycobacterial activity against Mycobacterium tuberculosis Erdman by microplate alamar blue assay; assay type: functional
[3] = tested on: Mycobacterium tuberculosis; test: Antimycobacterial activity against Mycobacterium tuberculosis H242; assay type: functional
[4] = tested on: Mycobacterium tuberculosis; test: Antimycobacterial activity against Mycobacterium tuberculosis H37Rv by liquid microdilution method; assay type: functional
[5] = tested on: Mycobacterium tuberculosis; test: Growth inhibition of Mycobacterium tuberculosis H37Rv at 6.25 ug/ml; assay type: functional; conditions: read-out: GI
[6] = tested on: Mycobacterium tuberculosis; test: Antimycobacterial activity against Mycobacterium tuberculosis H37Rv under anaerobic condition; assay type: functional
[7] = tested on: Mycobacterium tuberculosis; test: Antimycobacterial activity against Mycobacterium tuberculosis H37Rv under aerobic condition; assay type: functional
[8] = tested on: Mycobacterium tuberculosis; test: Antimycobacterial activity against Mycobacterium tuberculosis H37Ra; assay type: functional
[9] = tested on: Mycobacterium tuberculosis; test: Antimycobacterial activity against Mycobacterium tuberculosis isolate no. 246; assay type: functional
[10] = molecular target: T1, 3-oxoacyl-[acyl-carrier-protein] synthase 1 (Mycobacterium tuberculosis, UniProt P9WQD9); test: Inhibition of Mycobacterium tuberculosis H37Rv Fab1
T1 sequence (P9WQD9 whole entry): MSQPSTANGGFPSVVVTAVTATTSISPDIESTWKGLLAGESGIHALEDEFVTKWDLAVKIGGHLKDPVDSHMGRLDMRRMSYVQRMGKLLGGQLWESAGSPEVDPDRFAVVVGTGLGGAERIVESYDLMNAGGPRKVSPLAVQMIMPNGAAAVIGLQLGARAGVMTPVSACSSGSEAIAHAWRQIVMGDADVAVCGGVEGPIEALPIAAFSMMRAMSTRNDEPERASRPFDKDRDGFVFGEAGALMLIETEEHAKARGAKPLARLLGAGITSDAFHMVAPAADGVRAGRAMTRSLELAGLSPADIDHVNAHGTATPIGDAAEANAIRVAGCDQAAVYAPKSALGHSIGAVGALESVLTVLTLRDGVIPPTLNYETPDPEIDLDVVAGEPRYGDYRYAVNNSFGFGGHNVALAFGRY

[11] = Selectivity index, ratio of CC50 for lymphocytes to MIC for Mycobacterium tuberculosis H37Rv isolate WC 64/02; assay type: functional
[12] = tested on: Mycobacterium tuberculosis; test: Antimycobacterial activity against Mycobacterium tuberculosis H37Rv isolate WC 51/02; assay type: functional
[13] = Selectivity index, ratio of CC50 for lymphocytes to MIC for Mycobacterium tuberculosis H37Rv isolate WC 51/02; assay type: functional
[14] = tested on: Mycobacterium tuberculosis; test: Antimycobacterial activity against Mycobacterium tuberculosis H37Rv isolate WC 64/02; assay type: functional

SMILES: C=CC(O)C#CC#CC(O)/C=C\CCCCCCCCOC(C)=O (configuration not stated)
- MIC [1]: 25.3 µg/mL (≈ 76.1 µM)
- MIC [2]: 1.4 µg/mL (≈ 4.21 µM)

SMILES: CCCCCCCC/C=C\CCCCCCCCCCCCCCCC[C@@H](O)C(=O)N[C@@H](CO[C@@H]1O[C@H](CO)[C@H](O)[C@H](O)[C@H]1O)[C@H](O)[C@H](O)CCC/C=C\CCCCCCCCC
- MIC [3]: 40 µg/mL (≈ 44.5 µM)
- MIC [1]: 40 µg/mL (≈ 44.5 µM)

SMILES: CC[C@H](C)[C@@H](NC(=O)[C@@H](CCC(=O)O)NC(=O)[C@H](Cc1cnc[nH]1)NC(=O)[C@H](CC(C)C)NC(=O)[C@H](N)Cc1ccccc1)C(=O)N[C@H]1CCCCNC1=O [CALPINACTAM]
- MIC [4]: 12.5 µg/mL (≈ 16.3 µM)

SMILES: C[C@@H]1CC[C@@H]2[C@@H](C)C[C@@H](C(=O)/C=C\O)[C@]2(O)C1=O [ELISABETHIN H]
- inhibition of growth at 6.25 µg/mL [5]: 51%

SMILES: CCCC/C=C/C#CC#CCCCCCCCC(=O)O [EXOCARPIC ACID]
- MIC [6]: 87 µg/mL (≈ 317 µM)
- MIC [7]: 20 µg/mL (≈ 72.9 µM)
- MIC [8]: 20 µg/mL (≈ 72.9 µM)

SMILES: CCCCCC(CC(=O)N1N=CCCC1C(=O)N[C@H]1COC(=O)[C@H]2CCCNN2C(=O)[C@H](C)NC(=O)[C@@H](CC(C)C)NC1=O)C(=O)O (some centres not stated) [LYDIAMYCIN A]
- MIC [1]: 12.5 µg/mL (≈ 18.8 µM)
- MIC [9]: 25 µg/mL (≈ 37.7 µM)

SMILES: CCCCCCCc1cc(O)c(CCCCCC)c(=O)o1 [PSEUDOPYRONINES B]
- MIC [1]: 0.78 µg/mL (≈ 2.65 µM)
- IC50 [10]: 3.8 µM

SMILES: Cc1cc(O)c2c(c1)C(=O)C=CC2=O [RAMENTACEONE]
- Selectivity Index [11]: <8
- MIC [12]: 0.5 µg/mL (≈ 2.66 µM)
- Selectivity Index [13]: <8
- MIC [14]: 0.5 µg/mL (≈ 2.66 µM)
